Assay [1] addresses T1, delta opioid receptor (Homo sapiens, UniProt P41143). The assay is described as follows: Radioligand competitive binding, [3H]DADLE. As to conditions: for Ki: delta, ± SD.
Assay [2] has as its target T2, mu opioid receptor (Homo sapiens, UniProt P35372). The assay is described as follows: Radioligand competitive binding, [3H]DAMGO. As to conditions: for Ki: radioligand binding, mu, ± SD.
Assay [3] addresses mu opioid receptor (Cavia porcellus, UniProt A0ACM8Q262). The assay is described as follows: Inhibition of DAMGO-stimulated [35S]GTPγS binding in guinea pig caudate. The format is biochemical. As to conditions: 50% attenuation of DAMGO (10 μM)-stimulated [35S]GTP-γ-S binding, ± SD, read-out: Apparent Functional Ki DAMGO. Background: GTPγS resists hydrolysis and so accumulates on activated G proteins.

Assay [4] concerns the target T3, kappa opioid receptor (Homo sapiens, UniProt P41145). The assay is described as follows: Inhibition of U69,593-stimulated [35S]GTPγS binding in cloned human opioid receptors. The format is biochemical. Also on record: expressed in transfected cells.
Assay [5] has as its target T1, delta opioid receptor. As to the kind of experiment: Inhibition of SNC-80-stimulated [35S]GTPγS binding in cloned human opioid receptors. The format is biochemical. Also on record: expressed in transfected cells. The following applies: 50% attenuation of SNC80 (10 μM)-stimulated [35S]GTP-γ-S binding, ± SD, read-out: Apparent Functional Ki SNC-80.
The target in assay [6] is T4, kappa opioid receptor (Cavia porcellus, UniProt P41144).
T4 construct: as measured in guinea pig caudate membranes; from tissue; host or cells: guinea pig caudate membranes
As to the kind of experiment: Inhibition of U69,593-stimulated [35S]GTPγS binding in guinea pig caudate. It is filed as biochemical. The following applies: for Ki: 50% attenuation of U69,593 (10 μM)-stimulated [35S]GTP-γ-S binding, ± SD, read-out: Apparent Functional Ki U69,593; for δ/κ / μ/κ: ratio of apparent functional Ki.

Assay [7] concerns the target T3, kappa opioid receptor. The assay is described as follows: Radioligand competitive binding, [3H]U69,593. As to conditions: for Ki: radioligand binding, kappa, ± SD; for delta/kappa selectivity ratio (binding) / mu/kappa selectivity ratio (binding): column head not printed in Table 1.
In assay [8] the target is T5, delta opioid receptor (Cavia porcellus, UniProt A0A286XTF2).
T5 construct: as measured in guinea pig caudate membranes; from tissue; host or cells: guinea pig caudate membranes
As to the kind of experiment: Inhibition of SNC-80-stimulated [35S]GTPγS binding in guinea pig caudate. The format is biochemical. As to conditions: 50% attenuation of SNC80 (10 μM)-stimulated [35S]GTP-γ-S binding, ± SD, read-out: Apparent Functional Ki SNC-80.

Assay [9] concerns the target T2, mu opioid receptor. The assay is described as follows: Inhibition of DAMGO-stimulated [35S]GTPγS binding in cloned human opioid receptors. It is filed as biochemical. Set-up: expressed in transfected cells. As to conditions: 50% attenuation of DAMGO (10 μM)-stimulated [35S]GTP-γ-S binding, ± SD, read-out: Apparent Functional Ki DAMGO.
The mark [10] stands for this setting: ratio of apparent functional Ki, cloned human receptors.

Consider `C[C@@H]1CN(CCCc2ccccc2)[C@H]2C[C@H](NC(=O)CCN3CCCCC3)C[C@]1(c1cccc(O)c1)C2` [Compound 12, (−)-N-[(1R,4S,5S, 7R)-5-(3-hydroxy)phenyl-4-methyl-2-(3-phenylpropyl)-2-azabicyclo[3.3.1]non-7-yl]-3-(1-piperidinyl)propanamide], for which the Ki on delta opioid receptor [1] was above 3400 nM; on mu opioid receptor [2], 147 nM; at mu opioid receptor [3], 33.6 ± 10.4 nM; on kappa opioid receptor [4] (cloned human opioid receptors, 50% attenuation of U69,593 (10 μM)-stimulated [35S]GTP-γ-S binding, ± SD, read-out: Apparent Functional Ki U69,593) it was 0.56 ± 0.08 nM; on delta opioid receptor [5] it was above 100 nM; on kappa opioid receptor [6], 0.48 ± 0.06 nM. For the same compound, the Ki was 4.3 nM on kappa opioid receptor [7], above 300 nM on delta opioid receptor [8] and 35.8 ± 6.8 nM on mu opioid receptor [9]. Besides, at delta opioid receptor [1] (within the testing parameters), the “affinity for the delta receptor (in words)” value is reported as “no affinity”. The “affinity for the mu receptor lower than compound 10” value on mu opioid receptor [2] (binding Ki of 12 relative to 10) is reported as around 50 fold. Also, the δ/κ on kappa opioid receptor [4] (setting [10]) is given as above 178; at kappa opioid receptor [6], above 625. The μ/κ at kappa opioid receptor [4] (setting [10]) amounted to 64; at kappa opioid receptor [6], 70. For the same compound, the “delta/kappa selectivity profile (binding, text)” value on kappa opioid receptor [7] (ratio of binding Ki) is above 790 fold. Besides, the “delta/kappa selectivity ratio (binding)” value on kappa opioid receptor [7] (ratio of binding Ki) is recorded as above 790. The “mu/kappa selectivity ratio (binding)” value on kappa opioid receptor [7] (ratio of binding Ki) is on record as 34.

Regarding `Oc1ccc2c3c1O[C@H]1c4[nH]c5c(c4C[C@@]4(O)[C@@H](C2)N(CC2CC2)CC[C@]314)C[C@@]1(O)[C@H]2Cc3ccc(O)c4c3[C@@]1(CCN2CC1CC1)[C@H]5O4` [6, nor-BNI, norbinaltorphimine], the Ki on delta opioid receptor [8] amounted to 86 ± 7.2 nM.

Consider `CC1C2CCCC1(c1cccc(O)c1)CCN2CCc1ccccc1` (stereo not drawn) [Compound 10, N-phenethyl-9β-methyl-5-(3-hydroxyphenyl)morphan, reference compound], for which the Ki was determined as 272 ± 30 nM at delta opioid receptor [1]; 3.11 nM on mu opioid receptor [2]; 0.338 ± 0.028 nM on mu opioid receptor [3]; 1.34 ± 0.084 nM at kappa opioid receptor [6]; 14.5 ± 0.99 nM at kappa opioid receptor [7]; 12.6 ± 1.01 nM on delta opioid receptor [8]. The δ/κ at kappa opioid receptor [6] stood at 9.4. Further, at kappa opioid receptor [6], the μ/κ is 0.25. For the same compound, at kappa opioid receptor [7] (ratio of binding Ki), the “delta/kappa selectivity ratio (binding)” value amounted to 19. The “mu/kappa selectivity ratio (binding)” value on kappa opioid receptor [7] (ratio of binding Ki) came to 0.21.

On to `C[C@@H]1CN(CCCc2ccccc2)[C@H]2C[C@H](NC(=O)CCCN(C)C)C[C@]1(c1cccc(O)c1)C2` [Compound 13, 4-(dimethylamino)-N-[(1R,4S,5S,7R)-5-(3-hydroxyphenyl)-4-methyl-2-(3-phenylpropyl)-2-azabicyclo[3.3.1]non-7-yl]butanamide], for which the Ki amounted to 1460 ± 113 nM at delta opioid receptor [1], 57 ± 5.4 nM on mu opioid receptor [2] and 11.9 ± 0.65 nM on kappa opioid receptor [7]. For the same compound, the “delta/kappa selectivity ratio (binding)” value on kappa opioid receptor [7] (ratio of binding Ki) was determined as 122. Also, on kappa opioid receptor [7] (ratio of binding Ki), the “mu/kappa selectivity ratio (binding)” value is reported as 5.

The values above are taken from patent US6559159B2, “Kappa opioid receptor ligands” (Research Triangle Institute, priority 2001, dated 2003).
